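Assay format: 96-well plates, 48-hour exposure. Abbreviation: GI50, concentration required for 50% inhibition of growth. TGI: total growth inhibition.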
What was measured:
Assay in all cases: NCI anticancer screen, dose series, 48 h
A549 NSCLC = tested on: A549 NSCLC
COLO 205 colon = tested on: COLO 205 colon
HCT-116 colon = tested on: HCT-116 colon
HS 578T breast = tested on: HS 578T breast
OVCAR-8 ovarian = tested on: OVCAR-8 ovarian
RXF 393 renal = tested on: RXF 393 renal
SK-MEL-28 melanoma = tested on: SK-MEL-28 melanoma
SNB-19 CNS = tested on: SNB-19 CNS
UACC-62 melanoma = tested on: UACC-62 melanoma
SK-OV-3 ovarian = tested on: SK-OV-3 ovarian

## CC(=O)Nc1cc2cc(NS(=O)(=O)c3cc(C(F)(F)F)cc(C(F)(F)F)c3)ccc2oc1=O
A549 NSCLC
  TGI: > 100 µM
COLO 205 colon
  TGI: > 100 µM
HCT-116 colon
  TGI: > 100 µM
HS 578T breast
  TGI: > 100 µM
OVCAR-8 ovarian
  TGI: > 100 µM
RXF 393 renal
  TGI: 0.811 µM
SK-MEL-28 melanoma
  TGI: > 100 µM
SNB-19 CNS
  TGI: > 100 µM
UACC-62 melanoma
  TGI: > 100 µM

## CC(C)=CCC/C(C)=C/[C@H]1OC(=O)CC12C[C@H](O)C=CC2=O (stereo partly specified)
A549 NSCLC
  GI50: 2080 nM
  TGI: 15.8 µM
COLO 205 colon
  GI50: 1100 nM
  TGI: 3.72 µM
HCT-116 colon
  GI50: 323 nM
  TGI: 1.21 µM
HS 578T breast
  GI50: 1810 nM
  TGI: 5.02 µM
OVCAR-8 ovarian
  GI50: 791 nM
SK-MEL-28 melanoma
  GI50: 2.23 µM
  TGI: 5.09 µM
SK-OV-3 ovarian
  GI50: 1440 nM
  TGI: 3.19 µM
SNB-19 CNS
  GI50: 1360 nM
  TGI: 2.64 µM
UACC-62 melanoma
  GI50: 1340 nM
  TGI: 2.68 µM

## CC(=O)OCC(OC(C)=O)C(OC(C)=O)C(OC(C)=O)C(=O)CNn1c(-c2ccccc2Cl)nc2ccc(Br)cc2c1=O (stereo unspecified)
A549 NSCLC
  TGI: > 100 µM
COLO 205 colon
  TGI: > 100 µM
HCT-116 colon
  TGI: > 100 µM
OVCAR-8 ovarian
  TGI: > 100 µM
RXF 393 renal
  TGI: > 100 µM
SK-MEL-28 melanoma
  TGI: > 100 µM
SK-OV-3 ovarian
  TGI: > 100 µM
SNB-19 CNS
  TGI: > 100 µM
UACC-62 melanoma
  TGI: > 100 µM

## C=C1C(=O)O[C@H]2[C@H]1CC/C(COC(=O)/C=C/c1c[nH]c3ccccc13)=C\CC[C@@]1(C)O[C@@H]21
A549 NSCLC
  GI50: 1270 nM
  TGI: 2.71 µM
COLO 205 colon
  GI50: 225 nM
  TGI: 0.541 µM
HCT-116 colon
  GI50: 185 nM
  TGI: 0.425 µM
HS 578T breast
  GI50: 353 nM
  TGI: 2.92 µM
OVCAR-8 ovarian
  GI50: 191 nM
  TGI: 0.421 µM
RXF 393 renal
  GI50: 0.172 µM
  TGI: 0.331 µM
SK-MEL-28 melanoma
  GI50: 0.332 µM
  TGI: 1.3 µM
SK-OV-3 ovarian
  GI50: 1880 nM
  TGI: 3.59 µM
UACC-62 melanoma
  GI50: 177 nM
  TGI: 0.379 µM

## CN(C)c1ccc(N=C(C#N)c2nc(N)nc(N3CCN(c4ccccc4)CC3)n2)cc1
A549 NSCLC
  GI50: 15300 nM
  TGI: > 34.2 µM
COLO 205 colon
  GI50: > 42400 nM
  TGI: > 50 µM
HCT-116 colon
  GI50: 17400 nM
  TGI: > 50 µM
OVCAR-8 ovarian
  GI50: 18000 nM
  TGI: > 37.2 µM
RXF 393 renal
  GI50: 22.1 µM
  TGI: 39.1 µM
SK-MEL-28 melanoma
  GI50: 12.7 µM
  TGI: > 50 µM
SK-OV-3 ovarian
  GI50: 16600 nM
  TGI: > 35.4 µM
SNB-19 CNS
  GI50: > 50000 nM
  TGI: > 50 µM
UACC-62 melanoma
  GI50: > 50000 nM
  TGI: > 50 µM

## CC[C@H](C)[C@H](NC(=O)c1nccn1C)C(=O)N(C)[C@H](C[C@@H](OC(C)=O)c1nc(C(=O)N[C@@H](Cc2ccccc2)C[C@H](C)C(=O)OC)cs1)C(C)C
A549 NSCLC
  GI50: 2430 nM
  TGI: > 33.3 µM
COLO 205 colon
  GI50: 990 nM
  TGI: 4.11 µM
HCT-116 colon
  GI50: 724 nM
  TGI: > 33.3 µM
HS 578T breast
  GI50: 1110 nM
  TGI: > 33.3 µM
OVCAR-8 ovarian
  GI50: 1440 nM
  TGI: > 33.3 µM
SK-MEL-28 melanoma
  GI50: 5.05 µM
  TGI: > 33.3 µM
SK-OV-3 ovarian
  GI50: 1720 nM
  TGI: > 33.3 µM
SNB-19 CNS
  GI50: 1280 nM
  TGI: > 33.3 µM
UACC-62 melanoma
  GI50: 289 nM
  TGI: > 33.3 µM

## COc1cc(C(=O)C/C(CCC(=O)Nc2ccc(Cl)cc2Cl)=N/Nc2nnc(C)n2N)ccc1O
A549 NSCLC
  TGI: > 100 µM
COLO 205 colon
  TGI: > 100 µM
HCT-116 colon
  TGI: > 100 µM
OVCAR-8 ovarian
  TGI: > 100 µM
RXF 393 renal
  TGI: > 100 µM
SK-MEL-28 melanoma
  TGI: > 100 µM
SK-OV-3 ovarian
  TGI: > 100 µM
SNB-19 CNS
  TGI: > 100 µM
UACC-62 melanoma
  TGI: > 100 µM

## C=C1C[C@@H]2[C@H](CC[C@]3(C)C(=O)CC[C@@H]23)[C@@]2(C)C=CC(=O)C=C12
A549 NSCLC
  GI50: 11500 nM
  TGI: > 51.8 µM
COLO 205 colon
  GI50: 20300 nM
  TGI: 41 µM
HCT-116 colon
  GI50: 14700 nM
  TGI: 29.9 µM
HS 578T breast
  GI50: 25100 nM
  TGI: > 77.2 µM
OVCAR-8 ovarian
  GI50: 6930 nM
  TGI: > 24 µM
SK-MEL-28 melanoma
  GI50: 42.5 µM
  TGI: > 100 µM
SK-OV-3 ovarian
  GI50: 39100 nM
  TGI: > 100 µM
SNB-19 CNS
  GI50: > 58800 nM
  TGI: > 100 µM
UACC-62 melanoma
  GI50: 8110 nM
  TGI: 30 µM

Source: PubChem BioAssay (NCI)
